Active and inactive are the calls of the source. The calls are words filed in the database; no cut-off is given here.
How the values were obtained:
[1] = Mutagenicity in Salmonella typhimurium TA100 measured at 1.5 to 1000 ug per well for 48 to 72 hrs by mini-Ames test; type: toxicity, Salmonella enterica subsp. enterica serovar Typhimurium; details: in vivo; dose lower 1.5 µg, time lower 48 hrs, dose upper 1000 µg, time upper 72 hrs
[2] = Half life in Sprague-Dawley rat plasma at 100 mg/kg, po measured up to 48 hrs by LC-MS/MS analysis; type: ADME, organism-based
A549 [3] = experiment: Antitumor activity against human A549 cells xenografted in Balb/c nude mouse assessed as tumor growth inhibition at 150 mg/kg, po administered once daily 24 days relative to control; type: functional, organism-based; details: time 24.0 day
[4] = target: T1, Glutaminase kidney isoform, mitochondrial (Homo sapiens) (UniProt O94925); experiment: Inhibition of human GAC in A549 cells assessed as induction of ROS level incubated for 16 hrs by DCFH-DA staining based flow cytometric analysis; type: cell-based; details: dose 100-1000 nM
T1 sequence (whole entry): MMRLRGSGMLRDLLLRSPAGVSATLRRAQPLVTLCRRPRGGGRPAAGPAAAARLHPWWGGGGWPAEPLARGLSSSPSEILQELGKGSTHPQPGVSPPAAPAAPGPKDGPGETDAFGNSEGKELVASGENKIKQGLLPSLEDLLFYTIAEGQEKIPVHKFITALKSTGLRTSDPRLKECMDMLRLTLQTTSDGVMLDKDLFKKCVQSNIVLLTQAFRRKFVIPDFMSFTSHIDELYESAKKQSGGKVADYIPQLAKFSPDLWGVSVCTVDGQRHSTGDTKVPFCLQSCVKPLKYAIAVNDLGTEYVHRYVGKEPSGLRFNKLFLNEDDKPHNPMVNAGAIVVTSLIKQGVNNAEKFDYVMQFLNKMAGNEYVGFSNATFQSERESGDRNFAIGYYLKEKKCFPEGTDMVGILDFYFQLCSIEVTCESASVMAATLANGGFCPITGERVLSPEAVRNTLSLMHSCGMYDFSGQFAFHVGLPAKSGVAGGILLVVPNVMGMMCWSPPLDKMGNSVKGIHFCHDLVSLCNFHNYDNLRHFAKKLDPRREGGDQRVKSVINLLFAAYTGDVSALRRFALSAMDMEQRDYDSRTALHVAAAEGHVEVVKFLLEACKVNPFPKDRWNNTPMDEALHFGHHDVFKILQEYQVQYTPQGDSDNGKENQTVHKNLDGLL

[5] = AUC(0 to infinity) in Sprague-Dawley rat plasma at 100 mg/kg, po measured up to 48 hrs by LC-MS/MS analysis; type: ADME, organism-based; design: dose 100 mg/kg, time < 48 hrs, route po
[6] = Mutagenicity in Salmonella typhimurium TA1535 measured at 1.5 to 1000 ug per well for 48 to 72 hrs in presence of S9 liver fraction by mini-Ames test; type: toxicity, subcellular, Salmonella enterica subsp. enterica serovar Typhimurium; details: dose lower 1.5 µg, time lower 48 hrs, dose upper 1000 µg, time upper 72 hrs
[7] = Mutagenicity in Escherichia coli WP2 uvrA measured at 1.5 to 1000 ug per well for 48 to 72 hrs in presence of S9 liver fraction by mini-Ames test; type: toxicity, subcellular; details: dose lower 1.5 µg, time lower 48 hrs, dose upper 1000 µg, time upper 72 hrs
A549 [8] = experiment: Antitumor activity against human A549 cells xenografted in Balb/c nude mouse assessed as tumor growth inhibition at 100 mg/kg, po administered once daily 24 days relative to control; type: functional; details: A549, 576 h, time 24 day, read-out: TGI
[9] = Mutagenicity in Escherichia coli WP2 uvrA measured at 1.5 to 1000 ug per well for 48 to 72 hrs by mini-Ames test; type: toxicity; details: in vivo; dose lower 1.5 µg, time lower 48 hrs, dose upper 1000 µg, time upper 72 hrs
[10] = Volume of distribution in Sprague-Dawley rat plasma at 10 mg/kg, iv measured up to 48 hrs by LC-MS/MS analysis; type: ADME, organism-based
[11] = MRT(0 to t) in Sprague-Dawley rat plasma at 100 mg/kg, po measured up to 48 hrs by LC-MS/MS analysis; type: ADME, organism-based
[12] = AUC(0 to t) in Sprague-Dawley rat plasma at 100 mg/kg, po measured up to 48 hrs by LC-MS/MS analysis; type: ADME, organism-based; design: dose 100 mg/kg, time < 48 hrs, route po
Homo sapiens = species on record: Homo sapiens; experiment: (§1) Inhibition of human recombinant GAC K320A mutant (73 to 598 residues ) expressed in Escherichia coli BL21 (DE3) cells incubated for 10 mins by fluorometric assay
[13] = as §1
A549 [14] = experiment: Inhibition of colony formation in human A549 cells assessed as reduction of colony number at 1 uM measured after 4 days by crystal violet staining-based colony formation assay relative to control; type: functional; details: A549, 96 h, time 4 day
[15] = Cmax in Sprague-Dawley rat plasma at 100 mg/kg, po measured up to 48 hrs by LC-MS/MS analysis; type: ADME, organism-based; design: dose 100 mg/kg, time < 48 hrs, route po
[16] = MRT(0 to t) in Sprague-Dawley rat plasma at 10 mg/kg, iv measured up to 48 hrs by LC-MS/MS analysis; type: ADME, organism-based
[17] = Mutagenicity in Salmonella typhimurium TA100 measured at 1.5 to 1000 ug per well for 48 to 72 hrs in presence of S9 liver fraction by mini-Ames test; type: toxicity, subcellular, Salmonella enterica subsp. enterica serovar Typhimurium; details: dose lower 1.5 µg, time lower 48 hrs, dose upper 1000 µg, time upper 72 hrs
[18] = Mutagenicity in Salmonella typhimurium TA98 measured at 1.5 to 1000 ug per well for 48 to 72 hrs in presence of S9 liver fraction by mini-Ames test; type: toxicity, subcellular, Salmonella enterica subsp. enterica serovar Typhimurium; details: dose lower 1.5 µg, time lower 48 hrs, dose upper 1000 µg, time upper 72 hrs
[19] = target: Voltage-gated inwardly rectifying potassium channel KCNH2 (Homo sapiens, UniProt Q12809); experiment: Inhibition of human ERG expressed in HEK293 cells at -80 mV holding potential by whole cell patch-clamp assay; type: toxicity, cell-based
[20] = Mutagenicity in Salmonella typhimurium TA98 measured at 1.5 to 1000 ug per well for 48 to 72 hrs by mini-Ames test; type: toxicity, Salmonella enterica subsp. enterica serovar Typhimurium; details: in vivo; dose lower 1.5 µg, time lower 48 hrs, dose upper 1000 µg, time upper 72 hrs
[21] = Tmax in Sprague-Dawley rat plasma at 10 mg/kg, iv measured up to 48 hrs by LC-MS/MS analysis; type: ADME, organism-based
[22] = target: Voltage-dependent L-type calcium channel subunit alpha-1C (Homo sapiens, UniProt Q13936); experiment: Inhibition of Cav1.2 channel (unknown origin) incubated for 30 mins by Fluo-4 staining based FLIPR assay; type: toxicity; details: 0.5 h
[23] = Cmax in Sprague-Dawley rat plasma at 10 mg/kg, iv measured up to 48 hrs by LC-MS/MS analysis; type: ADME, organism-based; design: dose 10 mg/kg, time < 48 hrs, route iv
[24] = target: Sodium channel protein type 5 subunit alpha (Homo sapiens, UniProt Q14524); experiment: Inhibition of human Nav1.5 channel stably expressed in CHO cells at -120 mV holding potential by whole cell patch-clamp assay; type: toxicity, cell-based
[25] = MRT(0 to infinity) in Sprague-Dawley rat plasma at 10 mg/kg, iv measured up to 48 hrs by LC-MS/MS analysis; type: ADME, organism-based
[26] = target: T1, Glutaminase kidney isoform, mitochondrial (Homo sapiens); experiment: Inhibition of human GAC in A549 cells assessed as reduction in glutamate level at 100 to 1000 nM incubated for 16 hrs by colorimetric assay; type: cell-based; details: dose 100-1000 nM
[27] = target: T1, Glutaminase kidney isoform, mitochondrial (Homo sapiens); experiment: Inhibition of GAC (unknown origin)
[28] = Mutagenicity in Salmonella typhimurium TA1535 measured at 1.5 to 1000 ug per well for 48 to 72 hrs by mini-Ames test; type: toxicity, Salmonella enterica subsp. enterica serovar Typhimurium; details: in vivo; dose lower 1.5 µg, time lower 48 hrs, dose upper 1000 µg, time upper 72 hrs
[29] = Tmax in Sprague-Dawley rat plasma at 100 mg/kg, po measured up to 48 hrs by LC-MS/MS analysis; type: ADME, organism-based

Voltage-dependent L-type calcium channel subunit alpha-1C, sequence (Q13936 whole entry): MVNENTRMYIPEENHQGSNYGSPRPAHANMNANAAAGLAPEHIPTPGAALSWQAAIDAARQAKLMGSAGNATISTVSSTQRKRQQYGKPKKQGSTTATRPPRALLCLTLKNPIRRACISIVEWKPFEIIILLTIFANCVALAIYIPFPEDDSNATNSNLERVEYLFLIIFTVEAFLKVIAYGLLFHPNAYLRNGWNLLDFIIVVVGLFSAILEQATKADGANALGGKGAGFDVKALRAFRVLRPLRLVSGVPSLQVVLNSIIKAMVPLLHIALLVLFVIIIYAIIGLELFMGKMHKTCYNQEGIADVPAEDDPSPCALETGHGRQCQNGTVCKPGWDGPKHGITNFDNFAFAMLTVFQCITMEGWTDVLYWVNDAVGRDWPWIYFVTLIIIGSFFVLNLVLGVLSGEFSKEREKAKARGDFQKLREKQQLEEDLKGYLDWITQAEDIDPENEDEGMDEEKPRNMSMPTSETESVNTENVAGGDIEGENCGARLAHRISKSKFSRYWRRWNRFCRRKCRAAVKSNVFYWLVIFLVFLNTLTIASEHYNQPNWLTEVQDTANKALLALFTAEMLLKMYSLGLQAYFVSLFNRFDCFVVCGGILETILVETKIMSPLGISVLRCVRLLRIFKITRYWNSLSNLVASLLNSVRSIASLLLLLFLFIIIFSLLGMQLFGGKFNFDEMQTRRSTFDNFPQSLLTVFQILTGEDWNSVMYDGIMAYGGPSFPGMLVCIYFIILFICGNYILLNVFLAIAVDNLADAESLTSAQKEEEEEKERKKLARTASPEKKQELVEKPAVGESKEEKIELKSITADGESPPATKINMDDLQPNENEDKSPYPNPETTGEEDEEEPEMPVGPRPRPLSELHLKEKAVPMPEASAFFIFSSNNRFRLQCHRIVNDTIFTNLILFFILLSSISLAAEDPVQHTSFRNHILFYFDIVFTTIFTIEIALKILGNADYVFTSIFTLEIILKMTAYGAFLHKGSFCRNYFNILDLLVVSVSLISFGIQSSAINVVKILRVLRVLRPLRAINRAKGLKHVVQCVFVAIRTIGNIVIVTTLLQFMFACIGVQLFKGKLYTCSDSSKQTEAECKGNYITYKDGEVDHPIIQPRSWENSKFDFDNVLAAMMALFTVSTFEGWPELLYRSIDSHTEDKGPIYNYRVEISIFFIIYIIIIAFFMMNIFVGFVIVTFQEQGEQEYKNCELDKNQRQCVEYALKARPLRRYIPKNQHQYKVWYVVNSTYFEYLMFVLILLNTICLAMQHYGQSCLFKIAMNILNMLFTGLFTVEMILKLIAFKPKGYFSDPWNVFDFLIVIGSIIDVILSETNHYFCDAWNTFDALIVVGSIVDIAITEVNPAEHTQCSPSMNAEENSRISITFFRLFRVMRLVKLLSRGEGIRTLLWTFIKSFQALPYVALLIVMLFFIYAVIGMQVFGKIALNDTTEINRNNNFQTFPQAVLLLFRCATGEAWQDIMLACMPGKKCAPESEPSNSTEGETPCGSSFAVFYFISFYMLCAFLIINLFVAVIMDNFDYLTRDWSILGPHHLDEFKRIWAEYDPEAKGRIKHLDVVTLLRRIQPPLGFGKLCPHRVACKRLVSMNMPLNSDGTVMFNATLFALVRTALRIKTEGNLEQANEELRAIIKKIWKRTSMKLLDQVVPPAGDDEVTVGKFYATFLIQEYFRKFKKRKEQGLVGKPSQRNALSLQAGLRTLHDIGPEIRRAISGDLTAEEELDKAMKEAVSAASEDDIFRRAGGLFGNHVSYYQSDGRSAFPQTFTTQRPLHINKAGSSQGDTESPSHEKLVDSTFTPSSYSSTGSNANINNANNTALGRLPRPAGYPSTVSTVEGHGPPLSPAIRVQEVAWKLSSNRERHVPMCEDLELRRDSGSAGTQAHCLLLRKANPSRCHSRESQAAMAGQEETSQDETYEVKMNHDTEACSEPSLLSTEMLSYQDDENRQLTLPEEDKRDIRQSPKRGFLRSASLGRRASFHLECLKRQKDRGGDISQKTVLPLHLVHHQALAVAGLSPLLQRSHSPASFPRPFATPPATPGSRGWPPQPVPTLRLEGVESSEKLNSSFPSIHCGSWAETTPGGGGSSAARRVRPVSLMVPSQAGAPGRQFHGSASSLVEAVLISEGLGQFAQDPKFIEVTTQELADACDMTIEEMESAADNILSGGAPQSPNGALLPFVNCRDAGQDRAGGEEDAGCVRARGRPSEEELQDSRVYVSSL
Sodium channel protein type 5 subunit alpha, sequence (Q14524 whole entry): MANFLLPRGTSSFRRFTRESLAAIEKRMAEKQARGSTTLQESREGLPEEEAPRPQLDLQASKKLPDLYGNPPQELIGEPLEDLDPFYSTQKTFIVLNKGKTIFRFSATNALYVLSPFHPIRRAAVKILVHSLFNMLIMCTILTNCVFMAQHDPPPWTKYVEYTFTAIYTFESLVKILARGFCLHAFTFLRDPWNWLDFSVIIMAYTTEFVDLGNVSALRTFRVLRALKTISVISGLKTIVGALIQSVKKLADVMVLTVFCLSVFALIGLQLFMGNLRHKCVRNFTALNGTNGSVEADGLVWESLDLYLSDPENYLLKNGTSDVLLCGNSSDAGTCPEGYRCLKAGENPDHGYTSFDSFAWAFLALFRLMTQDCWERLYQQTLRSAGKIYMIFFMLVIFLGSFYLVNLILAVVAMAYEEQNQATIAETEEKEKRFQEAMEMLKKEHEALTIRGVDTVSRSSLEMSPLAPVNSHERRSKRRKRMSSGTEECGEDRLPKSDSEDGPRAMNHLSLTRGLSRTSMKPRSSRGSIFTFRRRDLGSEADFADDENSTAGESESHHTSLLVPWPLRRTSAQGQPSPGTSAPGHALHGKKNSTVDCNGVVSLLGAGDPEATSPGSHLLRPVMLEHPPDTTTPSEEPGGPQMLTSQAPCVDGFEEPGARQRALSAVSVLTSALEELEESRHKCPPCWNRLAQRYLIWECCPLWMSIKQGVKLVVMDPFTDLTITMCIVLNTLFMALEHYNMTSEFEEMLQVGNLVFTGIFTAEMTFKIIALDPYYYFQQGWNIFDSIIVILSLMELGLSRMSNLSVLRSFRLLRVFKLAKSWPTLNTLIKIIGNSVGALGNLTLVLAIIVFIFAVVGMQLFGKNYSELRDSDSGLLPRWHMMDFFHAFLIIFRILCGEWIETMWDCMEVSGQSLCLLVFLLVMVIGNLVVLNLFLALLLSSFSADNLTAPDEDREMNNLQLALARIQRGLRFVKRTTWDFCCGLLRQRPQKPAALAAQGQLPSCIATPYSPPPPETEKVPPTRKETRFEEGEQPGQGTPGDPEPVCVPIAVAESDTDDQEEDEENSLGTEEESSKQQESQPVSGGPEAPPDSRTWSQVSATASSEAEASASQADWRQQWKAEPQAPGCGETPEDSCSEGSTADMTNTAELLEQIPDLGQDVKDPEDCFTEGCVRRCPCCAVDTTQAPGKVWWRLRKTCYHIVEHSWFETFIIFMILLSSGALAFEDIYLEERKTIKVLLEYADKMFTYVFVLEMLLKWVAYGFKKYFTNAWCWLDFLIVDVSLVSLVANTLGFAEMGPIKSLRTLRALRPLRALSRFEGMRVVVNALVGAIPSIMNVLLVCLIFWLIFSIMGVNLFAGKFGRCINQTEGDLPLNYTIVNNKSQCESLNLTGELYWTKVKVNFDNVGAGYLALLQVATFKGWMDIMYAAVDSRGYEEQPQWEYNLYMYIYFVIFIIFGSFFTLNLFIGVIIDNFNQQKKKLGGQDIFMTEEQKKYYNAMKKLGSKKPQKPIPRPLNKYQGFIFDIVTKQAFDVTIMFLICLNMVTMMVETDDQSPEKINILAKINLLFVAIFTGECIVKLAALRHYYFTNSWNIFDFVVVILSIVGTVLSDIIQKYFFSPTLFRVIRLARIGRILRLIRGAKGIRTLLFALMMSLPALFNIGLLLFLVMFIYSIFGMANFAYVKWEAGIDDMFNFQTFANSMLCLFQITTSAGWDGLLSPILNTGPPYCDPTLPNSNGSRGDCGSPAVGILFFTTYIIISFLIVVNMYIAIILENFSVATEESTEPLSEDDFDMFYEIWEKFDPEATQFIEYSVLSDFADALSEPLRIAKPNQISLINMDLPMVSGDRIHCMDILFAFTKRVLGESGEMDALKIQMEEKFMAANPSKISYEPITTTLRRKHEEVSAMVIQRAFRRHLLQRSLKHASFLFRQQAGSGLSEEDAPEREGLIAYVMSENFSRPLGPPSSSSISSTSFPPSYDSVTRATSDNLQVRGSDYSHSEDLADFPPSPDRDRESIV

O=C(Cc1cccc(Oc2ccccc2)c1)Nc1nnc(N[C@@H]2CCN(c3cccnn3)C2)s1
Activity [1]: Non-Toxic | half-life [2]: 2.02 h | TGI (A549 [3]): Active | inhibition [4]: Dose-Dependent Effect | AUC(0-inf) [5]: 2330 ng·h/mL | Activity [6]: Non-Toxic | Activity [7]: Non-Toxic | inhibition in vivo at 100 mg/kg (A549 [8]): 51.4% | Activity [9]: Non-Toxic | Vd [10]: 15.7 L/kg | MRT last at 48 h [11]: 3.73 h | AUC(0-t) at 48 h [12]: 2310 ng·h/mL | INH (Homo sapiens): 107 nM | EC50 [13]: 0.0103 µM | inhibition at 1 µM (A549 [14]): ~100% | Cmax [15]: 487 ng/mL | MRT last at 48 h [16]: 1.52 h | Activity [17]: Non-Toxic | Activity [18]: Non-Toxic | IC50 [19]: 7.53 µM | Activity [20]: Non-Toxic | Tmax [21]: 1.98 min | INH [22]: 21.71 µM | Cmax [23]: 6500 ng/mL | INH [24]: > 30 µM | MRT inf [25]: 1.59 h | inhibition [26]: Active | INH [27]: 8.9 nM | Activity [28]: Non-Toxic | Tmax [29]: 2 h
